Results published in patent US9410142B2, “Dendrimer-based excipients for the attenuation of protein aggregation” (Massachusetts Institute of Technology, priority 2010, dated 2016).
“Also recorded” adds a separate entry of the source.

Legend:
[1] = target: T1, α-chymotrypsinogen A (aCgn) (Bos taurus, UniProt P00766); assay: aCgn aggregation (monomer loss) at 52.5° C. by size exclusion HPLC; format: physicochemical, Bovine; settings: for aCgn aggregation suppression compared with other salt forms / generations (FIG. 5, 6, 8): 10 mg/mL aCgn, pH 5, 52.5° C.; for aCgn t95/t95, 0 (Shelf-Life Extension Factor): isotonic concentrations, 20 mM sodium citrate pH 5, 52.5° C., time for 5% loss of protein vs no additive; for rate of aCgn monomer loss compared to the reference solution: additive 0.05 M
Procedure: The aggregation of aCgn was accelerated by incubating samples at an elevated temperature. […] In addition to all aggregation experiments being conducted at that temperature, all samples contained 10 mg/mL aCgn, held at pH 5.0 using a 20 mM sodium citrate buffer. 50 μL aliquots of each protein-cosolute mixture were placed in 0.2 mL polymerase chain reaction (PCR) tubes and then incubated in a Bio-Rad Mycycler thermal cycler with a timer initiated when the thermal cycler reached the desired temperature. Each series contained 12 samples and up to 8 different mixtures were tested at the same time during any given experiment. Samples were removed periodically and immediately placed in an ice bath to quench the aggregation reaction. The length of each experiment was planned so that the extent of reaction was such that at least 20% of the protein aggregated, making changes in the rate of aggregation pronounced. After at least five minutes in the ice bath, the samples were briefly spun in a minicentrifuge to remove precipitated aggregates and then transferred to autosampler vials.
All aCgn samples were first treated with phenylmethylsulfonyl fluoride to inhibit residual amounts of active enzyme and, after dialysis, solutions were frozen, rather than lyophilized, in 0.3 mL aliquots and used within 6 months. […] Solutions for the aggregation study were prepared by first preparing a solution of the cosolute of interest in a 20 mM sodium citrate pH 5 buffer at a concentration double that of interest (adjusting the pH to 5 if needed with the appropriate acid or an 8 M sodium hydroxide solution), then mixing 0.3 mL of this solution with 0.3 mL of a thawed aCgn solution. This solution was then divided into twelve aliquots, each 50 μL in volume, and incubated at an elevated temperature, as described below.
15 μL, of each aCgn sample were injected into an Agilent 1200 series HPLC, equipped with a Zorbax GF-250 (4.6×250 mm, 4 micron) size exclusion column and a UV-Vis detector, during a sequence. The HPLC mobile phase contained 25 mM citric acid monohydrate, 25 mM sodium acetate, and 200 mM sodium chloride with the pH adjusted to 4.0 using sodium hydroxide. The flow rate was set at 1 mL/min and samples were monitored at 280 nm.
Peak area at each time point was compared to the peak area for an unstressed sample to create a monomer loss profile normalized with respect to the initial concentration. Each profile was compared to a profile for a sample containing no cosolute to determine the change in aggregation rate upon addition of the cosolute. For a control, each aggregation experimental setup had one protein solution that contained no cosolute to verify that the baseline aggregation rate remained constant amongst all experiments.
The most notable consequence of perturbing a protein's environment is the enhancement or inhibition of protein aggregation. Deyoung L R et al. (1993) Accounts Chem Res 26:614-620; Fink A L (1998) Fold Des 3:R9-R23. The guanidinium-modified dendrimers were added to model protein solutions and incubated at an elevated temperature to determine how they influence the rate of this degradation pathway. […] At low dendrimer concentrations (0.05 M), the rate of monomer loss in the presence of the surface-modified dendrimer is slower than when compared to the reference solution. However, this aggregation rate reduction is insignificant when compared to the rate reduction induced by a high concentration of other commonly used additives such as arginine hydrochloride (ArgHCl), which is also depicted in the figure. Furthermore, as the concentration of the surface-modified dendrimer is increased, the aggregation rate reduction decreases until ultimately, the rate of aggregation is increased. At a concentration of 0.2 M, the surface-modified dendrimer induced rapid aggregation, causing a 50% loss in about 10 minutes as opposed to 30 minutes for the solution containing no cosolute. […]

[2] = Partial molar volume from density measurements of dendrimer only solutions; format: physicochemical
[3] = target: T1, α-chymotrypsinogen A (aCgn); assay: Preferential interaction with aCgn by vapor pressure osmometry (VPO); format: physicochemical, Bovine; settings: for Γexp preferential interaction coefficient of aCgn: 0.17-[…] dendrimer salt, VPO
Procedure: Osmolality measurements were carried out according to the previously described procedure. For improved accuracy, all samples were prepared gravimetrically using a Mettler Toledo balance with a precision of 0.1 mg. Partial molar volume values of the
Stock solutions of both BSA and lysozyme and stock solutions of the cosolutes were each prepared in a 40 mM sodium phosphate buffer, pH 6.0 (aCgn measurements were conducted in 20 mM sodium citrate buffer, pH 3.5 or pH 5.0). Stock solutions of the cosolutes were used so that a series of samples could be easily produced with varying solute concentrations by dilution with water and buffer. The protein stock solutions were further purified by placing the solutions under dialysis for 48 hours at room temperature against two changes of buffer (1 L each). […] To determine the concentration, samples of each stock solution were diluted gravimetrically with water to a final optical density of about 1.0 and the concentration determined spectrophotometrically with a PerkinElmer Lambda 35 UV/Vis spectrometer. It should be noted that the protein stock solutions were stored at 4° C. and used within one week of their preparation.
[formula] A Wescor Vapro® vapor pressure osmometer (model 5520) was used for all osmometry measurements. The instrument was calibrated using 0.1, 0.29, and 1 mol/kg osmolality standards provided by Wescor. Due to slight drifts in the calibration points, the instrument was recalibrated after every four measurements and the thermocouple was cleaned daily using concentrated ammonium hydroxide followed by a rinse with HPLC grade water. […] The data sets for each cosolute included at least 16 individually made solutions (both for the sets with and without the protein). Each sample contained approximately 80 μL of solution (40 μL of diluted cosolute stock solution and 40 μL of the protein stock solution). A minimum of three measurements on each solution were made. If the standard deviation for a particular solution was greater than 2 mmol/kg, more measurements were taken or another sample was prepared. For a given solute, data representing the dependence of osmolality on solute molality were fitted by a quadratic equation, with all fitting parameters floated. Data were weighted by the standard deviation of the individual osmolality measurements for the same solution using the nonlinear fitting program Igor Pro.
To gain further insight into how the modified dendrimer salts inhibit protein-protein interactions, preferential interaction coefficient (Γ23) values at various concentrations were determined, both experimentally via vapor pressure osmometry (VPO) measurements and computationally via MD simulations. The experimental results for the interaction between modified generation 0 PAMAM dendrimers and aCgn are expressed in Table 2, which summarizes the polynomial fit and uncertainty of the experimental data. Theoretical preferential interaction coefficient values were computed from the MD simulation using the procedure outlined in our previous work. Baynes B M and Trout B L (2003) J Phys Chem B 107:14058-14067; Shukla D et al. (2009) J Phys Chem B 113:12546-12554.

[4] = target: T1, α-chymotrypsinogen A (aCgn); assay: DSC denaturation midpoint temperature (Tm) of aCgn; format: physicochemical, Bovine
Procedure: The thermodynamic stability of aCgn in the presence of the arginine salts was determined by DSC (Microcal VP-Differential Scanning calorimeter located in the Biophysical Instrumentation Facility (BIF) at MIT). Each reading began with a minimum of three buffer-buffer up and down scans (in this case, the buffer also contains the cosolute of interest) to establish a reproducible thermal history followed by a single protein-buffer up scan. aCgn was analyzed at a concentration of 1 mg/mL in a 20 mM sodium citrate pH 5 buffer containing the cosolute of interest and a scan rate of 90° C./hour. The data was analyzed in the MicroCal Origin® plotting software. In the analysis, the last buffer-buffer reference scan was first subtracted from the data and then the data was normalized with respect to the protein concentration, cell volume, and scan rate. The baseline (which was progressed through the peak) was then subtracted from the plot and the denaturation midpoint temperature, Tm, was taken as the temperature at the peak maximum of the unfolding event. For each arginine salt, three concentrations (including zero concentration) were tested and Tm values with respect to cosolute concentration were fitted to a linear trend.
The thermostability of aCgn at 1 mg/mL in the presence of the modified dendrimers was assessed by determining the denaturation midpoint temperature (Tm) from DSC scans, which is a qualitative indicator of how the conformational stability of the protein is perturbed. Ghosh K et al. (2009) Proc Natl Acad Sci USA 106:10649-10654.

Concanavalin A (Con A) = Concanavalin A (Con A) (Canavalia ensiformis, UniProt P02866); assay: Con A aggregation / shelf-life at pH 6.5 and 37° C.; format: physicochemical; settings: for Con A t95/t95, 0 (Shelf-Life Extension Factor): isotonic concentrations, 40 mM sodium phosphate pH 6.5, 37° C., time for 5% loss of protein vs no additive
Procedure: This Shelf-Life Extension Factor was determined by comparing the length of time, t95, for a 5% loss of protein when in the presence of the compounds to the original length of time, t95,0 for a 5% loss. For comparison purposes, isotonic concentrations (as determined by VPO) of the compounds were used and Shelf-Life Extension Factor values for commonly used excipients at isotonic concentrations are shown as well. Shelf-life values of aCgn were determined at 52.5° C. and at 37° C. for Con A.

## N=C(N)NCCNC(=O)CCN(CCNC(=O)CCN(CCC(=O)NCCN(CCC(=O)NCCNC(=N)N)CCC(=O)NCCNC(=N)N)CCN(CCC(=O)NCCN(CCC(=O)NCCNC(=N)N)CCC(=O)NCCNC(=N)N)CCC(=O)NCCN(CCC(=O)NCCNC(=N)N)CCC(=O)NCCNC(=N)N)CCC(=O)NCCNC(=N)N.O=P(O)(O)O.O=P(O)(O)O.O=P(O)(O)O.O=P(O)(O)O.O=P(O)(O)O.O=P(O)(O)O.O=P(O)(O)O.O=P(O)(O)O.O=P(O)(O)O.O=P(O)(O)O.O=P(O)(O)O.O=P(O)(O)O.O=P(O)(O)O.O=P(O)(O)O [Dend. 1 Gdm(H2PO4)]
[1]
  aCgn aggregation suppression compared with other salt forms / generations (FIG. 5, 6, 8): lower for all concentrations
  aCgn t95/t95, 0 (Shelf-Life Extension Factor): 16.3

## OC[C@H]1O[C@@](CO)(O[C@H]2O[C@H](CO)[C@@H](O)[C@H](O)[C@H]2O)[C@@H](O)[C@@H]1O [Sucrose, reference compound]
[1]
  aCgn t95/t95, 0 (Shelf-Life Extension Factor): 1.9

## O=S(=O)([O-])[O-].[Na+].[Na+] [Na2SO4, sodium sulfate, reference compound]
[1]
  aCgn t95/t95, 0 (Shelf-Life Extension Factor): 3.1

## Cl.Cl.Cl.Cl.Cl.Cl.N=C(N)NCCNC(=O)CCN(CCC(=O)NCCNC(=N)N)CCN(CCC(=O)NCCNC(=N)N)CCC(=O)NCCNC(=N)N [GdmCl, Generation 0 Polyamidoamine (PAMAM) dendrimer with a surface modified to guanidinium]
[2]
  V0 partial molar volume at infinite dilution: 0.5217 L/mol
[1]
  rate of aCgn monomer loss compared to the reference solution: slower
[1]; additive 0.2 M, no cosolute 30 minutes
  time for 50% loss of aCgn monomer: about 10 minutes
[3]; 50 mg/mL aCgn, 20 mM sodium citrate pH 5, maximum dendrimer 0.2 mol/L
  Γ23/[3] preferential interaction with aCgn: −8.1 ± 3.6 mol/mol
[3]
  Γexp preferential interaction coefficient of aCgn: −1.5
[3]; listed as chloride salt
  Γexp preferential interaction coefficient of aCgn: −1.5±0.7
[4]
  rate of lowering the melting temperature of aCgn relative to ordinary GdmCl: double
[4]; 1 mg/mL aCgn, 20 mM sodium citrate pH 5, maximum dendrimer 0.2 mol/L
  dTm/d[3] aCgn denaturation midpoint temperature increment: −13.9 K * L/mol
[4]; concentrations less than 0.2 mol/L
  rate of decrease of Tm of aCgn: 13.9 ° C.*M^−1

## CC(=O)O [acetate]
[1]
  aCgn aggregation suppression compared with other salt forms / generations (FIG. 5, 6, 8): moderately improves the performance; also recorded: only improved slightly

## Cl.N=C(N)NCCC[C@H](N)C(=O)O [ArgHCl, arginine hydrochloride, reference compound]
Concanavalin A (Con A)
  Con A t95/t95, 0 (Shelf-Life Extension Factor): 0.4
[1]
  aCgn t95/t95, 0 (Shelf-Life Extension Factor): 3.3

## Generation 1 PAMAM Dendrimer, Ethylene Diamine Core, with Guanidinium Chloride Surface Groups [G1-Gdn]
[1]
  rate of aCgn monomer loss compared to the reference solution: large increase in the rate of aggregation

## N=C(N)NCCNC(=O)CCN(CCNC(=O)CCN(CCC(=O)NCCN(CCC(=O)NCCNC(=N)N)CCC(=O)NCCNC(=N)N)CCN(CCC(=O)NCCN(CCC(=O)NCCNC(=N)N)CCC(=O)NCCNC(=N)N)CCC(=O)NCCN(CCC(=O)NCCNC(=N)N)CCC(=O)NCCNC(=N)N)CCC(=O)NCCNC(=N)N.O=S(=O)(O)O.O=S(=O)(O)O.O=S(=O)(O)O.O=S(=O)(O)O.O=S(=O)(O)O.O=S(=O)(O)O.O=S(=O)(O)O [Dend. 1 Gdm(SO4)1/2]
Concanavalin A (Con A)
  Con A t95/t95, 0 (Shelf-Life Extension Factor): 16.7
Concanavalin A (Con A); listed as generation 1 dendrimer with a guanidinium sulfate surface
  Con A t95/t95, 0 (Shelf-Life Extension Factor): greater than 15
Concanavalin A (Con A); listed as sulfate form of the generation 1 modified dendrimer
  Con A t95/t95, 0 (Shelf-Life Extension Factor): 16.7
Concanavalin A (Con A); pH 6.5, 37° C.
  Con A shelf-life, times longer than with glycerol or sucrose: over 10 times

## OCC(O)CO [Glycerol, reference compound]
Concanavalin A (Con A)
  Con A t95/t95, 0 (Shelf-Life Extension Factor): 1.3
